A short description of series [1]: Resazurin-based in vitro cytotoxicity with L-6 cells. In kind it is cell-based, rat. As for the experimental part:
Serial drug dilutions of eleven 3-fold dilution steps covering a range from 100 to 0.002 µg/mL were prepared. After 70 h of incubation, the plates were inspected under an inverted microscope to assure growth of the controls and sterile conditions. […] The plates were read with a Spectramax Gemini XS microplate fluorometer (Molecular Devices Cooperation, Sunnyvale, CA, USA) using an excitation wavelength of 536 nm and an emission wavelength of 588 nm. IC50 values were calculated by linear regression from the sigmoidal dose–inhibition curves using SoftmaxPro software Version 8.2.1 (Molecular Devices Cooperation, Sunnyvale, CA, USA). Podophyllotoxin (Sigma P4405) was used as control.
A general note: The colour change of resazurin is a common sign of viable cells or microbes.

The next series relates to P. falciparum NF54. As to the kind of experiment: In vitro microplate assay against P. falciparum NF54 (3H-hypoxanthine incorporation). The conditions noted are these: Plasmodium falciparum. In kind it is cell-based, Plasmodium falciparum. As for the experimental part: Serial drug dilutions of eleven 3-fold dilution steps covering a range from 100 to 0.002 µg/mL were prepared. […] After 48 h of incubation time, 0.05 mL of ^3H-hypoxanthine (=0.5 µCi) was added to each well of the plate. The plates were incubated for a further 24 h under the same conditions. Plates were then harvested using a BetaplateTM cell harvester (Wallac, Zurich, Switzerland). Red blood cells were transferred onto a glass fiber filter and then washed with distilled aqua demin. The dried filters were inserted into a plastic foil with 10 mL of scintillation fluid and counted in a BetaplateTM liquid scintillation counter (Wallac, Zurich, Switzerland). IC50 values were calculated from sigmoidal inhibition curves by linear regression using Microsoft Excel. […] Louis, MO, USA) was used as control.

Series [2] in a line: Resazurin-based in vitro cytotoxicity with HepG2 cells. The conditions noted are these: HepG2 cells; human hepatocarcinoma cells, 48 h. In kind it is cell-based, human. The method, then:
The HepG2 cells were washed with DPBS (Dulbecco’s PBS without calcium and magnesium, Gibco, Cat #21600-044) and trypsinized with trypsin solution in DPBS. Trypsinization was stopped by adding culture medium, and after being stained with Trypan Blue (SORS Ukraine) cells were counted using a counting chamber (Hausser Scientific, Cat #3500). The cell suspension was placed in a falcon tube containing plating medium DMEM/High glucose with 1% fetal bovine serum, 100 units/mL penicillin, and 100 µg/mL streptomycin. Cells at a density of 250,000 cells/mL were seeded in sterile 384-well plates (Greiner Bio-One, Cat #781091) in a volume of […] and incubated at 37 °C and 5% CO2. Serial dilutions of ten 3-fold dilution steps of test and reference compounds covering a range from 100.0 to 0.005 µM were added to the wells, followed by incubation at 37 °C and 5% CO2 for 48 h. Then, resazurin (50 µM final concentration) was added and plates were incubated for another 3 h. The plates were read with a SpectraMax microplate reader (Molecular Devices Cooperation, Sunnyvale, CA, USA)) using an extinction wavelength of 555 nm and an emission wavelength of 570 nm. IC50 values were calculated using GraphPad Prism 9.0 charting software. Doxorubicin (Sigma Aldrich D1515) was used as control.

The nature of series [3]: Parallel artificial membrane permeability assay (PAMPA). As to conditions: for Papp at 5 h, 200 µM: PAMPA, pH 7.4, Pe, PBS pH 7.4, 200 µM, room temperature; for Pe: PAMPA standards. The method, then: With the high-throughput PAMPA the newly synthesized compounds were tested for their passive permeability through cell membranes without the influence of efflux pumps or transporter proteins. The assay was performed using a Corning® Gentest^TM Precoated PAMPA Plate System (Corning, Glendale, AZ, USA) with 96-well polystyrene plates. The bottom of the acceptor plate consists of a porous membrane, whereby the pores are lined with a lipid–oil–lipid triple layer. Stock solutions of each test compound at 10 mM were prepared in DMSO or methanol and diluted with phosphate-buffered saline (PBS at a pH of 7.4) to a final concentration of 200 µM. […] The donor plate (bottom plate) was filled with the compound solutions, whereby all compounds were tested in quadruplicates. Each well of the acceptor plate (top plate) was filled with PBS buffer. Donor and acceptor plates were combined and incubated at room temperature for 5 h. After that, the plates were separated and 150 µL of each well of both plates were transferred to 96-well UV plates (Greiner Bio-One). Absorption at different wavelengths covering a range from 200 to 300 nm was measured using a SpectraMax M3 UV plate reader. […] The plates were analyzed at the wavelength where the R2 value of the calibration curve was higher than 0.99 [47].
Recovery of compounds from donor and acceptor wells (mass retention) was calculated as shown in the equation below. Data were only accepted when recovery exceeded 70%. The equation is as follows:(3) R=1−[cDt×VD+cAt×VA]/(c0×VD) where
Background: PAMPA measures passive passage across an artificial lipid membrane.

The mark [4] stands for this setting: rat skeletal myofibroblasts, read-out: Cytotoxicity L-6 Cells IC50.
The mark [5] stands for this setting: NF54, chloroquine-sensitive strain NF54, erythrocytic stages, read-out: P.f.NF54 IC50.

Read-outs that look alike come from different tables or passages of the source.

The IC50 is the concentration needed to halve the response being measured. As to `CCN(CC)CCCC(C)Nc1ccnc2cc(Cl)ccc12` (centres unmarked) [CQ, chloroquine, reference compound], the half-inhibitory concentration (IC50) at 70 h in series [1] (setting [4]) was 90.9 µM. Further, in the series with P. falciparum NF54 (NF54, read-out: P.f.NF54 IC50), the IC50 was 0.009 µM.

The molecule `CN1CCN(c2ccccc2NC(=O)c2cccc(C(F)(F)F)c2Oc2ccc(F)cc2)CC1` [Compound 31, 2-(4-Fluorophenoxy)-N-[2-(4-methylpiperazin-1-yl)phenyl]-3-(trifluoromethyl)benzamide] returned an IC50 at 70 h in series [1] (rat) of 120 µM. In addition, the 50% inhibitory concentration (IC50) in the series on P. falciparum NF54 (setting [5]) is 14 µM.

By Papp is commonly meant a coefficient for how fast a substance crosses the barrier. Read a high Papp as ready permeation. As for `O=C(Nc1ccccc1N1CCOCC1)c1cccc(C(F)(F)F)c1Oc1ccc(F)cc1` [Compound 32, 2-(4-Fluorophenoxy)-N-[2-(morpholin-4-yl)phenyl]-3-(trifluoromethyl)benzamide], in series [2], the IC50 at 48 h is over 100 µM. The concentration for half-maximal inhibition (IC50) at 70 h in series [1] (rat) amounted to 161 µM. Further, the Papp at 5 h, 200 µM in series [3] came to 6.63 ×10⁻⁶ cm/s. Besides, the IC50 in the series with P. falciparum NF54 (setting [5]) came to 3.04 µM.

Take `O=C(Nc1ccc(N2CCOCC2)cc1)c1cccc(C(F)(F)F)c1Oc1ccc(F)cc1` [Compound 33, 2-(4-Fluorophenoxy)-N-[4-(morpholin-4-yl)phenyl]-3-(trifluoromethyl)benzamide]: the midpoint of inhibition in series [2], the IC50 at 48 h, lay at 35.3 µM. The half-inhibitory concentration (IC50) at 70 h in series [1] (rat) amounted to 195 µM. Moreover, the Papp at 5 h, 200 µM in series [3] is 3.92 ×10⁻⁶ cm/s. In addition, the half-inhibitory concentration (IC50) in the series with P. falciparum NF54 (setting [5]) came to 6.81 µM.

As to `CN(C)c1ccccc1NC(=O)c1cccc(C(F)(F)F)c1Oc1ccc(F)cc1` [Compound 35, N-[2-(Dimethylamino)phenyl]-2-(4-fluorophenoxy)-3-(trifluoromethyl)benzamide], half-maximal inhibition in series [1] (rat) (IC50 at 70 h) was put at 25.1 µM. For the same molecule, the IC50 in the series on P. falciparum NF54 (setting [5]) was 4.4 µM.

`CN(C)c1ccc(NC(=O)c2cccc(C(F)(F)F)c2Oc2ccc(F)cc2)cc1` [Compound 36, N-[4-(Dimethylamino)phenyl]-2-(4-fluorophenoxy)-3-(trifluoromethyl)benzamide]: the IC50 at 48 h in series [2] was over 100 µM. In series [1] (rat), the IC50 at 70 h stood at 239 µM. Also, the IC50 in the series on P. falciparum NF54 (setting [5]) stood at 7.58 µM.

On to `CC(C)(C)OC(=O)N1CCN(C(=O)c2cccc(C(F)(F)F)c2Oc2ccc(F)cc2)CC1` [Compound 50, tert-Butyl-4-[2-(4-fluorophenoxy)-3-(trifluoromethyl)benzoyl]piperazine-1-carboxylate], for which it took 35.2 µM to reach half-maximal inhibition in series [2] (IC50 at 48 h). Also, in series [1] (rat), the IC50 at 70 h was found to be 41.4 µM. Also, the Papp at 5 h, 200 µM in series [3] was determined as 1.82 ×10⁻⁶ cm/s. Moreover, in the series on P. falciparum NF54 (setting [5]), the IC50 stood at 51.8 µM.

Turning to `O=C(Nc1ccccc1N1CCNCC1)c1cccc(C(F)(F)F)c1Oc1ccc(F)cc1` [Compound 53, 2-(4-Fluorophenoxy)-N-[2-(piperazin-1-yl)phenyl]-3-(trifluoromethyl)benzamide], in series [2], the 50% inhibitory concentration (IC50) at 48 h came to 4.1 µM. For the same molecule, in series [1] (rat), inhibition was half-maximal at 13.5 µM (IC50 at 70 h). The apparent permeability coefficient (Papp) at 5 h, 200 µM in series [3] came out at 6.39 ×10⁻⁶ cm/s. For the same molecule, the IC50 in the series with P. falciparum NF54 (setting [5]) came to 1.04 µM.

In series [1] (rat), `CC(=O)Nc1ccc(Oc2c(C(=O)Nc3ccccc3N3CCNCC3)cccc2C(F)(F)F)cc1` [Compound 54, 2-(4-Acetamidophenoxy)-N-[2-(piperazin-1-yl)phenyl]-3-(trifluoromethyl) benzamide] displayed a half-maximal inhibitory concentration (IC50) at 70 h of 13.2 µM. Also, the apparent permeability coefficient (Papp) at 5 h, 200 µM in series [3] is 0.26 ×10⁻⁶ cm/s. Moreover, in the series on P. falciparum NF54 (setting [5]), the IC50 is 11.1 µM.

Consider `CC(=O)Nc1ccc(Oc2c(C(=O)Nc3ccc(N4CCNCC4)cc3)cccc2C(F)(F)F)cc1` [Compound 63, 2-(4-Acetamidophenoxy)-N-[4-(piperazin-1-yl)phenyl]-3-(trifluoromethyl)benzamide], for which the IC50 at 70 h in series [1] (rat) was 113 µM. In addition, the IC50 in the series with P. falciparum NF54 (setting [5]) was 15.7 µM.

On to `O=C(Nc1ccc(N2CCNCC2)cc1)c1cccc(C(F)(F)F)c1` [Compound 66, N-[4-(Piperazin-1-yl)phenyl]-3-(trifluoromethyl)benzamide], for which, in series [2], half-maximal inhibition (IC50 at 48 h) was put at 11.8 µM. Moreover, the concentration for half-maximal inhibition (IC50) at 70 h in series [1] (rat) is 41.5 µM. The Papp at 5 h, 200 µM in series [3] was determined as 3.91 ×10⁻⁶ cm/s. Moreover, in the series on P. falciparum NF54 (setting [5]), the half-inhibitory concentration (IC50) turned out to be 2.6 µM.

Molecule `COc1cccc2c1C(=O)c1c(O)c3c(c(O)c1C2=O)C[C@@](O)(C(=O)CO)C[C@@H]3O[C@H]1C[C@H](N)[C@H](O)[C@H](C)O1` [DOX, doxorubicin, reference compound] displayed an IC50 at 48 h in series [2] of 0.3 µM.

Consider `COc1cc([C@@H]2c3cc4c(cc3[C@H](O)[C@H]3COC(=O)[C@H]23)OCO4)cc(OC)c1OC` [POD, podophyllotoxin, reference compound], for which the IC50 at 70 h in series [1] (setting [4]) came out at 0.012 µM.

Turning to `Cn1c(=O)c2c(ncn2C)n(C)c1=O` [caffeine, reference compound], the Pe in series [3] worked out at 8 ×10⁻⁶ cm/s.

Regarding `NS(=O)(=O)c1cc2c(cc1Cl)NCNS2(=O)=O` [hydrochlorothiazide, reference compound], the Pe in series [3] stood at 0.09 ×10⁻⁶ cm/s.

For the origin of these results see article PMC12298624, “Anti-Infective Properties, Cytotoxicity, and In Silico ADME Parameters of Novel 4′-(Piperazin-1-yl)benzanilides” (Pharmaceuticals, 2025).
